Laboratory results as given in article PMC9714824, “Hexapeptides from mammalian inhibitory hormone hunt activate and inactivate nematode reproduction” (PLOS ONE, 2022).

How the values were obtained:
[1] = system: human prostate cancer cell lines (LNCaP, PC3 and DU145); assay: 3H-thymidine incorporation, prostate cancer cells; format: cell-based; settings: 0.06 or 6 μM, 24h then 48h pulse; in words (Fig 4)
Description: For assays involving 14mer peptides only human prostate cancer cell lines (LNCaP, PC3 and DU145) were obtained from ATCC (American Tissue Type Culture Collection, Rockville, MD, USA). Cells were cultured in DMEM (Dulbecco’s […], Life Technologies, Grand Island, NY, USA) supplemented with 10% fetal calf serum (FCS, heat-inactivated), 100 IU/ml penicillin and 10 μg/ml streptomycin (all CSL, Parkville, Victoria, Australia) in 75 cm^2 culture flasks (Becton Dickinson, Franklin Lakes, NJ, USA) and were maintained at 37°C in a humidified incubator with […]. Incorporation of ^3H-thymidine was used to assess DNA synthesis. Cells were seeded overnight at 0.5 x 10^5 cells per well in 24-well tissue culture plates in DMEM culture medium (supplemented as above with 10% FCS, penicillin and streptomycin). Cell growth was synchronised by culturing cells in DMEM containing 0.1% bovine serum albumin (supplemented with penicillin and streptomycin, but without FCS) for 24h. […]
Fig 4 EPL001 and EPL030 effects on human prostate cancer cell growth in vitro. Cell proliferation was determined by ^3H-thymidine incorporation. […]

[2] = system: MCF-7 human breast adenocarcinoma xenografts; assay: MCF-7 xenograft precursor study (first study); format: in vivo, nude mice; settings: for Max % weight loss: 100mg/kg/day i.p.; for Median RTV2: 100mg/kg/day i.p. on 15 days between days 0 and 20, n=8
Description: The MCF-7 human breast adenocarcinoma model was selected for two xenograft studies. An oestrogen pellet was implanted subcutaneously in the dorsal area 24 hours prior to 2-3mm^3 fragments of MCF-7 tumour taken from donor tumours transplanted subcutaneously in the abdominal flanks of the efficacy study mice. Once tumour volumes reached approximately 32 mm^3 (as measured by calipers, designated treatment day 0) mice were randomised into treatment groups (n=8).
In the first study four groups were used as follows: EPL001 or EPL030 at 100mg/kg/day administered i.p. on days 0, 1, 4, 5, 6, 7, 8, 11, 12, 13, 14, 15, 18, 19 and 20, plus a mouse anti-EPL001 monoclonal antibody or a control antibody directed at mouse haemocytes at 4mg/kg/day administered i.p. on days 0, 1, 2, 3, 4, 7, 8, 9, 10, 11, 14, 15, 16, 17 and 18 .
Tumour volume, using calipers, and animal body weight were recorded throughout the experiment and normalised to the respective volume on the initial day of treatment (day 0). Mann-Whitney U tests were conducted to determine the statistical significance of any differences in growth rate (based on tumour volume doubling time) between control and treated groups.

Caenorhabditis elegans = settings: 1μM per day into the aqueous medium; cited from earlier work
rat bone marrow cells = assay: Bone marrow cell assay, time-lapse cell counts over 24h; format: cell-based; settings: EPL001, EPL030 at 6μM, EPL120 at 5μM final concentration, in words (Fig 6)

| Sequence | Cell proliferation by 3H-thymidine incorporation [1] | Max % weight loss [2] [%] | Median RTV2 [2] [days] | Fecundity (number of eggs), cumulative totals vs untreated controls (Caenorhabditis elegans) | Lifespan, average vs untreated controls (Caenorhabditis elegans) | Effect on bone marrow cells in culture (rat bone marrow cells) | Growth delay ([2]; EPL001 versus EPL030) [days] |
| --- | --- | --- | --- | --- | --- | --- | --- |
| KLKMNGKNIEPVFT [EPL030, …, scrambled EPL001 control] | antiproliferative | 1.2 | 7.3 | −64% | +23% | pro-apoptotic | – |
| MKPLTGKVKEFNNI [EPL001, 14mer master test peptide …; ovine provenance] | antiproliferative | 3.6 | 7.7 | +43% | +18% | antiproliferative | 0.4 |
